Laboratory results from patent US20190314382A1, “COMPOUNDS AND PHARMACEUTICAL COMPOSITIONS THEREOF FOR THE TREATMENT OF INFLAMMATORY DISEASES” (Galapagos NV, priority 2016, published 2019).

Key:
IL-7 = assay: Biomarker study in RA subjects: serum IL-7, Luminex 18-Plex; format: in vivo, human; details: observed case
Protocol: (§1) Double-blind, placebo-controlled add on study in subjects with moderately to severely active RA who have an inadequate response to MTX (oral or parenteral).
(§2) 595 subjects randomized to one of 6 dose regimens of Compound 1 (dosed as a [Compound 1:HCl:3H2O]) (3 dose levels administered either once or twice daily) or placebo on top of each subject's stable dose of MTX.
(§3) Compound 1 (dosed as a [Compound 1:HCl:3H2O]) is dosed for twelve weeks once daily (q.d.) (50 mg, 100 mg or 200 mg) or twice daily (b.i.d.) (25 mg, 50 mg or 100 mg); or placebo.
(§4) 18 parameters from human serum samples (GM-CSF, IFNγ, IL-1β, IL-2, IL-4, IL-5, IL-6, IL-7, IL-8, IL-10, IL-12 (p70), IL-13, IL-17A, IL-21, IL-23, MIP-1α, MIP-1β and TNF-α) are analyzed on a Luminex Plateform (BioPlex® L200) using a Luminex 18-Plex Kit (Millipore: HSTCMAG-28SK).
(§5) Coupled beads react with the sample containing the biomarker of interest. […] Phycoerythrin (PE) serves as a fluorescent indicator.
(§6) The concentration of bead bound analyte is proportional to the MFI (Median Fluorescent Intensity) and back-calculated from interpolation with the calibration curve fitted with a 4 or 5 parameters logistic (4PL or 5PL) regression model selected during method pre-validation.
(§7) Treatment effect was assessed using an ANCOVA model on the changes from baseline, with factors: treatment, baseline value of the PD marker, geographical region and previous use of biologics.

TNF-α = assay: Biomarker study in RA subjects: serum TNF-α, Luminex 18-Plex; format: in vivo, human; details: observed case
Protocol: as §1, §2, §3, §4, §5, §6, §7

IL-17A = assay: Biomarker study in RA subjects: serum IL-17A, Luminex 18-Plex; format: in vivo, human; details: observed case
Protocol: as §1, §2, §3, §4, §5, §6, §7

IFNγ = assay: Biomarker study in RA subjects: serum IFNγ, Luminex 18-Plex; format: in vivo, human; details: observed case
Protocol: as §1, §2, §3, §4, §5, §6, §7

IL-1β = assay: Biomarker study in RA subjects: serum IL-1β, Luminex 18-Plex; format: in vivo, human; details: observed case
Protocol: as §1, §2, §3, §4, §5, §6, §7

[1] = cited from earlier work
IL-4 = assay: Biomarker study in RA subjects: serum IL-4, Luminex 18-Plex; format: in vivo, human; details: observed case
Protocol: as §1, §2, §3, §4, §5, §6, §7

IL-6 = assay: Biomarker study in RA subjects: serum IL-6, Luminex 18-Plex; format: in vivo, human; details: observed case
Protocol: as §1, §2, §3, §4, §5, §6, §7

[2] = 50 mg bid, Week 4, N = 73, RA subjects on MTX
[3] = 50 mg bid, Week 12, N = 73, RA subjects on MTX
[4] = 100 mg bid, Week 4, N = 79, RA subjects on MTX
[5] = 100 mg bid, Week 12, N = 79, RA subjects on MTX
[6] = 100 mg qd, Week 4, N = 68, RA subjects on MTX
[7] = 100 mg qd, Week 12, N = 68, RA subjects on MTX
[8] = 200 mg qd, Week 4, N = 75, RA subjects on MTX
[9] = 200 mg qd, Week 12, N = 75, RA subjects on MTX

O=C(Nc1nc2cccc(-c3ccc(CN4CCS(=O)(=O)CC4)cc3)n2n1)C1CC1 [Compound 1, cyclopropanecarboxylic acid {5-[4-(1,1-dioxo-thiomorpholin-4-ylmethyl)-phenyl]-[1,2,4]triazolo[1,5-a]pyridin-2yl}-amide]
IL-7 Mean change from baseline at Week 4 (IL-7; [2]): -1.8 pg/mL | IL-7 Mean change from baseline at Week 12 (IL-7; [3]): -2.6 pg/mL | IL-7 Mean change from baseline at Week 4 (IL-7; [4]): -2.7 pg/mL | IL-7 Mean change from baseline at Week 12 (IL-7; [5]): -3.0 pg/mL | IL-7 Mean change from baseline at Week 4 (IL-7; [6]): -0.4 pg/mL | IL-7 Mean change from baseline at Week 12 (IL-7; [7]): -1.2 pg/mL | IL-7 Mean change from baseline at Week 4 (IL-7; [8]): -2.5 pg/mL | IL-7 Mean change from baseline at Week 12 (IL-7; [9]): -3.3 pg/mL | TNFα Mean change from baseline at Week 4 (TNF-α; [2]): -0.2 pg/mL | TNFα Mean change from baseline at Week 12 (TNF-α; [3]): 0.3 pg/mL | TNFα Mean change from baseline at Week 4 (TNF-α; [4]): -1.7 pg/mL | TNFα Mean change from baseline at Week 12 (TNF-α; [5]): -2.2 pg/mL | TNFα Mean change from baseline at Week 4 (TNF-α; [6]): 1.0 pg/mL | TNFα Mean change from baseline at Week 12 (TNF-α; [7]): -1.0 pg/mL | TNFα Mean change from baseline at Week 4 (TNF-α; [8]): 0.0 pg/mL | TNFα Mean change from baseline at Week 12 (TNF-α; [9]): -1.2 pg/mL | IL-17α Mean change from baseline at Week 4 (IL-17A; [2]): -4.4 pg/mL | IL-17α Mean change from baseline at Week 12 (IL-17A; [3]): -3.3 pg/mL | IL-17α Mean change from baseline at Week 4 (IL-17A; [4]): 3.9 pg/mL | IL-17α Mean change from baseline at Week 12 (IL-17A; [5]): -1.9 pg/mL | IL-17α Mean change from baseline at Week 4 (IL-17A; [6]): -5.9 pg/mL | IL-17α Mean change from baseline at Week 12 (IL-17A; [7]): -7.4 pg/mL | IL-17α Mean change from baseline at Week 4 (IL-17A; [8]): -1.6 pg/mL | IL-17α Mean change from baseline at Week 12 (IL-17A; [9]): -0.9 pg/mL | IFNγ Mean change from baseline at Week 4 (IFNγ; [2]): 1.6 pg/mL | IFNγ Mean change from baseline at Week 12 (IFNγ; [3]): -3.4 pg/mL | IFNγ Mean change from baseline at Week 4 (IFNγ; [4]): -3.3 pg/mL | IFNγ Mean change from baseline at Week 12 (IFNγ; [5]): -5.8 pg/mL | IFNγ Mean change from baseline at Week 4 (IFNγ; [6]): -3.8 pg/mL | IFNγ Mean change from baseline at Week 12 (IFNγ; [7]): -6.6 pg/mL | IFNγ Mean change from baseline at Week 4 (IFNγ; [8]): 0.5 pg/mL | IFNγ Mean change from baseline at Week 12 (IFNγ; [9]): -3.1 pg/mL | IL-1βb Mean change from baseline at Week 4 (IL-1β; [2]): 1.4 pg/mL | IL-1βb Mean change from baseline at Week 12 (IL-1β; [3]): -0.9 pg/mL | IL-1βb Mean change from baseline at Week 4 (IL-1β; [4]): -1.0 pg/mL | IL-1βb Mean change from baseline at Week 12 (IL-1β; [5]): -1.8 pg/mL | IL-1βb Mean change from baseline at Week 4 (IL-1β; [6]): -0.6 pg/mL | IL-1βb Mean change from baseline at Week 12 (IL-1β; [7]): -1.2 pg/mL | IL-1βb Mean change from baseline at Week 4 (IL-1β; [8]): -0.6 pg/mL | IL-1βb Mean change from baseline at Week 12 (IL-1β; [9]): -1.6 pg/mL | safety profile ([1]; in particular regarding anemia, lymphocytes, neutrophils, hemoglobin): remarkable safety profile | efficacy in phase II ([1]; rheumatoid arthritis, inflammatory bowel diseases, in particular Crohn's disease): remarkable efficacy | IL-4 Mean change from baseline at Week 4 (IL-4; [2]): -0.3 pg/mL | IL-4 Mean change from baseline at Week 12 (IL-4; [3]): -2.1 pg/mL | IL-4 Mean change from baseline at Week 4 (IL-4; [4]): -2.7 pg/mL | IL-4 Mean change from baseline at Week 12 (IL-4; [5]): -2.7 pg/mL | IL-4 Mean change from baseline at Week 4 (IL-4; [6]): 0.8 pg/mL | IL-4 Mean change from baseline at Week 12 (IL-4; [7]): -1.6 pg/mL | IL-4 Mean change from baseline at Week 4 (IL-4; [8]): 0.2 pg/mL | IL-4 Mean change from baseline at Week 12 (IL-4; [9]): -2.5 pg/mL | IL-6 Mean change from baseline at Week 4 (IL-6; [2]): -4.2 pg/mL | IL-6 Mean change from baseline at Week 12 (IL-6; [3]): -6.0 pg/mL | IL-6 Mean change from baseline at Week 4 (IL-6; [4]): -11.0 pg/mL
